Test results from article PMC4574934, “Gliadin Induces Neutrophil Migration via Engagement of the Formyl Peptide Receptor, FPR1” (PLoS ONE, 2015).

System: human neutrophils
Test: EZ-TAXIScan chemotaxis assay, human neutrophils
Format: cell-based
Design: key to Chemotactic response: moderate (++) response; stronger chemotactic response (+++)
Settings: for Chemotactic response / Chemotaxis Index (CI) / Speed: Table 2, peptide 20 ng/mL, 1-3 experiments; for Chemotaxis Index (CI), Control / Speed, Control: no cyclosporine H
Method: Heparinized venous blood was centrifuged over a Ficoll-Paque PLUS gradient (d = 1.077 g/ml, GE Healthcare, Boston, MA). The sedimented granulocyte/erythrocyte fraction was collected, and erythrocytes were lysed with cold lysis buffer (155 mM NH4Cl, 10 mM KHCO3, 0.1 mM EDTA). Cells were resuspended in HBSS without Ca^2+/Mg^2+ (Thermo Scientific, Tewksbury, MA), and viability and purity were assessed as described above. Viability of neutrophils was >95%, purity was 98–99%.
Neutrophils were counted and applied in the EZ-TAXIScan chemotaxis assay. […] The EZ-TAXIScan chamber (Effector Cell Institute, Tokyo) was assembled as described by the manufacturer. Cell migration was recorded every 15 seconds for 30 minutes at 37°C in a humidified environmental chamber. Coverslips and chips used in the chamber were coated with 1% BSA at room temperature for 1 hour. All glass coverslips were ultrasonicated and washed before use. Cell migration analysis was conducted with MATLAB software. Cell tracks were subsequently used to compute the chemotaxis index (CI) and speed for each tracked cell at each time step, as well as the average CI and average speed for each experiment.

[1] = Table 3, in the presence of cyclosporine H (FPR1 inhibitor), 2-3 experiments
[2] = Table 1, neutrophils pretreated with cyclosporine H (FPR1 inhibitor), 5 experiments
[3] = human neutrophils pretreated with cyclosporine H

Molecule	Chemotactic response	Chemotaxis Index (CI)	Speed [μm/minute]	also measured
MVRVPVPQLQPQNPSQQHPQ [alpha-gliadin synthetic library peptide]	++	0.30 ± 0.01	6.68 ± 1.92	Chemotaxis Index (CI), Cyclosporine H [1]: 0.03 ± 0.01; Speed, Cyclosporine H [1]: 0.45 ± 0.11 μm/minute; Chemotaxis Index (CI), Control (Table 3, 2-3 experiments): 0.28 ± 0.03; Speed, Control (Table 3, 2-3 experiments): 7.50 ± 1.95 μm/minute
QIPEQSQCQAIHNVVHAIIL [alpha-gliadin synthetic library peptide]	+++	0.33	8.64	
CCCCC/C=C\C[C@@H](O)/C=C/C=C/C=C\[C@@H](O)CCCC(=O)O [LTB4, leukotriene B4, reference compound]				Chemotaxis Index (CI), Cyclosporine H [2]: 0.49 ± 0.01; Speed, Cyclosporine H [2]: 9.23 ± 0.07 μm/minute; Chemotaxis Index (CI), Control (Table 1, 5 experiments): 0.51 ± 0.01; Speed, Control (Table 1, 5 experiments): 9.68 ± 0.30 μm/minute
PFPQPQLPYLQPQPFRPQQP [alpha-gliadin synthetic library peptide]	++	0.21 ± 0.01	9.94 ± 0.09	
PQQPISQQQQQQQQQQQQQQ [alpha-gliadin synthetic library peptide]	++	0.29	7.62	
QQYPLGQGSFRPSQQNPLAQ [alpha-gliadin synthetic library peptide]	++	0.21	8.08	
LQELCCQHLWQIPEQSQCQA [alpha-gliadin synthetic library peptide]	++	0.18	8.85	
QVLQQSTYQLLQELCCQHLW [alpha-gliadin synthetic library peptide]	++	0.33	7.49	
GSVQPQQLPQFEEIRNLALQ [alpha-gliadin synthetic library peptide]	+++	0.34 ± 0.01	8.10 ± 0.18	Chemotaxis Index (CI), Cyclosporine H [1]: 0.02 ± 0.01; Speed, Cyclosporine H [1]: 0.30 ± 0.06 μm/minute; Chemotaxis Index (CI), Control (Table 3, 2-3 experiments): 0.33 ± 0.07; Speed, Control (Table 3, 2-3 experiments): 7.90 ± 0.87 μm/minute
PQNPSQQHPQEQVPLVQQQQ [alpha-gliadin synthetic library peptide]	++	0.23	6.73	
cyclosporine H [reference compound]				effect on PT-gliadin-induced chemotaxis [3]: completely abrogated; effect on fMLP-mediated neutrophil chemotaxis [3]: abolished; effect on leukotriene B4 (LTB4)-mediated chemotaxis [3]: remained unaffected
SSQVSFQQPLQQYPLGQGSF [alpha-gliadin synthetic library peptide]	++	0.19	7.65	
QQHNIAHGRSQVLQQSTYQL [alpha-gliadin synthetic library peptide]	+++	0.28 ± 0.01	10.17 ± 1.45	Chemotaxis Index (CI), Cyclosporine H [1]: 0.05 ± 0.02; Speed, Cyclosporine H [1]: 0.48 ± 0.19 μm/minute; Chemotaxis Index (CI), Control (Table 3, 2-3 experiments): 0.27 ± 0.02; Speed, Control (Table 3, 2-3 experiments): 6.65 ± 0.33 μm/minute
PPYCTIVPFGIFGTNYR [alpha-gliadin synthetic library peptide]	++	0.29 ± 0.01	8.55 ± 0.11	
